This is an account of results in PMC3353486, “Fluorescence Correlation Spectroscopy in Drug Discovery: Study of Alexa532-Endothelin 1 Binding to the Endothelin ETA Receptor to Describe the Pharmacological Profile of Natural Products” (The Scientific World Journal, 2012).

One data set deals with T1, endothelin ETA receptor (Rattus norvegicus, UniProt P26684).
T1 construct: endothelin ETA receptor-ligand complex alone and under the influence of a semisynthetic selective antagonist and a fungal extract on living A10 cells; endogenous in cells; host or cells: A10 cells
T1 sequence (P26684 21-426): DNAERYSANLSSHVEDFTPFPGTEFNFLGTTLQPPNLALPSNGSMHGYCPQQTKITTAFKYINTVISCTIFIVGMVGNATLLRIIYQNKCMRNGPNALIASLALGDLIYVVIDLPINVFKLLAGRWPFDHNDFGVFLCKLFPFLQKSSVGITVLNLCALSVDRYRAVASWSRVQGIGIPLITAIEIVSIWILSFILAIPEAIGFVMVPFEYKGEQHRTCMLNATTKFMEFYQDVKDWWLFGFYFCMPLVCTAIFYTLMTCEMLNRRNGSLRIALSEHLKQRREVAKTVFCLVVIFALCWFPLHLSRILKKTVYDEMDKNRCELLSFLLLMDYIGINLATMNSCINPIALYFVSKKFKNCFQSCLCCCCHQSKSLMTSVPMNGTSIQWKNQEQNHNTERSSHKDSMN
Description: FCS binding of Alexa532-ET1 to ETA receptor on living A10 cells (total, saturation, lateral mobility).

The test system of data set [1] is Rat vascular smooth muscle A10 cells. Description: Inositol phosphate (IP1) production, IP-One ELISA, A10 cells. The data set is classed as cell-based. The conditions noted are these: 0.5 to 50 nM ligand, 30 min; for inositol phosphate (IP1) production, dose-dependent increase up to: ELISA read at 450 nm, mean ± SEM of eight measurements. The method, then: The inositol phosphate determination assay was performed using the IP-One ELISA Kit for adherent cells (CISBIO, Cedex, France) following the operation instructions. […] The test substances were diluted in the stimulation buffer to a final concentration ranging from 0.5 to 50 nM. Cells were incubated for 30 minutes before their lysis. The supernatant was transferred into the ELISA plate where the competitive immunoassay took place. After the reaction was stopped, the optical density corresponding to IP accumulation was read at 450 nm with Bio-Rad Microplate Reader (Bio-Rad, Munich, Germany).
Data are presented as the mean ± SEM of eight measurements.
A general note: In an ELISA, binding on a coated surface is turned into a signal by an enzyme label.

In the next data set the test system is GABAA receptor. The conditions noted are these: coincubated benzodiazepines, hippocampal neurons, selectively complexes with hindered lateral mobility; cited from earlier work. From the text:
For the ETA receptor model described here, as well as for the GABAA and the β 2-adrenergic receptor models described elsewhere, the proportion of the fast diffusing receptor-ligand complexes was higher than that of slow diffusing receptor-ligand complexes. These findings ...

In the next data set the test system is ETA receptor. Set-up: method as in PMID 8942650. The conditions noted are these: ET-1/receptor complexes dissociate slowly; cited from earlier work.
Where [2] appears, read: 14.3 nM Alexa532-ET1, equilibrium.
[3] abbreviates: control, 14.3 nM Alexa532-ET1, 45 min, living A10 cells, FCS, mean ± SD of six independent experiments.

Description for endothelin ETA receptor: FCS measurements were performed via confocal illumination of a volume element of 0.19 fL in a ConfoCor 1 instrument (Zeiss, Jena, Germany) with a C-Apochromat 63x, NA 1.2 objective for water immersion. A dichroic filter and a band-pass filter (FT 540, EF 530–600) (Andover, Salem, MA) separated the excitation light from the emitted fluorescence. Sample excitation was performed with the 514 nm line of an argon laser. The power of the laser beam entering the sample was 2.4 kW/cm^2. The intensity fluctuations were detected by an avalanche photodiode (SPCM-AQ Series, PerkinElmer Optoelectronics, Fremont, ON) and were correlated with a digital hardware correlator (ALV-5000, ALV, Langen, Germany). To calibrate the volume element of observation for the experiments, a defined concentration of tetramethylrhodamine (TMR) was used. From the determined diffusion time constant of TMR and the diffusion coefficient D of 280 μm^2/s, the radio ω 0 (0.20 μm) and z 0 (1.08 μm) of the volume element were determined. Volume element positioning to the upper membrane of the cell was performed by motor-aided scanning through the cell in the z-direction (optoelectronical DC-servodrives, resolution of 0.1 μm). For the FCS experiments, the focus was placed at half maximal of fluorescence intensity at the upper membrane, taking in fast diffusing free ligand and slow diffusing receptor-ligand complexes in the plasma membrane.
A10 cells were seeded at a density of 5.0 × 10^4 on 18 mm poly-D-lysine-coated coverslips. The coverslips were placed in a Nunc 12 well plate, and the cells were cultured for 7 days in Dulbecco's Modified Essential Media supplemented with L-glutamine (2 mM), 1% of a solution containing 10000 I.U./mL penicillin and 10000 μg/mL streptomycin (GIBCO, Invitrogen, Karlsruhe, Germany) and 20% foetal calf serum. The cells were grown in 5% CO2 at 37°C until confluence was reached.
Prior to the FCS measurements, cells were washed three times with Locke's solution (5 mM HEPES, 154 mM NaCl, 5.6 mM KCl, 1 mM MgCl2, 3.6 mM Na2CO3, 2.0 mM glucose, 2.3 mM CaCl2 (pH 7.4)) at 37°C.
The autocorrelation function G(τ) for j different diffusing components in a three-dimensional Gaussian volume element is given by the following equation:
(2) τDj=ω02/4Dj, (3) Qj=σjηjgj, where N j is the average number of molecules of the species j in the volume element, τ Dj is the diffusion time constant of the species j, τ is the correlation time; ω 0 is the radius of the observation volume in the focal plane, z 0 is the radius of the observation volume in the z-direction, D j is the translational diffusion coefficient of the species j; Q j is the quantum yield factor, σ j is the absorption coefficient, η j is the fluorescence quantum yield, and g j is the fluorescence detection efficiency of the species j.
All data points from FCS measurements represent mean values and standard deviations of six independent experiments. The statistical significance of results was proven with one factorial analysis of variance (ANOVA). The results were considered to be significant for P values ≤0.05.

On endothelin ETA receptor (14.3 nM Alexa532-ET1, 45 min, 20°C), `CC[C@H](C)[C@H](NC(=O)[C@H](CC(=O)O)NC(=O)[C@H](CC(C)C)NC(=O)[C@H](Cc1c[nH]cn1)NC(=O)[C@@H]1CSSC[C@H](N)C(=O)N[C@@H](CO)C(=O)N[C@H]2CSSC[C@H](NC(=O)[C@H](CCC(=O)O)NC(=O)[C@H](CCCCNC(=O)c3ccc(C4=c5cc6c(c(S(=O)(=O)O)c5Oc5c4cc4c(c5S(=O)(=O)O)NC(C)C4(C)C)=NC(C)C6(C)C)cc3)NC(=O)[C@H](CC(=O)O)NC(=O)[C@H](CCSC)NC(=O)[C@H](CC(C)C)NC(=O)[C@H](CO)NC(=O)[C@H](CO)NC2=O)C(=O)N[C@@H](C(C)C)C(=O)N[C@@H](Cc2ccc(O)cc2)C(=O)N[C@@H](Cc2ccccc2)C(=O)N1)C(=O)N[C@H](C(=O)N[C@@H](Cc1c[nH]c2ccccc12)C(=O)O)[C@@H](C)CC` (some centres unmarked) [Alexa532-ET1] had a total binding of 43.5 ± 12.3%. At endothelin ETA receptor (14.3 nM Alexa532-ET1, 45 min, 20°C, equilibrium), the “total bound ligand concentration” value is reported as 6.22 ± 1.7 nM. On endothelin ETA receptor (setting [2]), the “bound ligand with hindered diffusion (D bound1)” value was 2.3 ± 0.7 nM and the “receptor-ligand complexes with unrestricted lateral mobility (D bound2)” value amounted to 3.9 ± 1.0 nM. Further, on endothelin ETA receptor (bound versus total ligand, nonlinear curve fitting), the “maximum number of binding sites B max” value worked out at 7.70 ± 0.74 nM. Further, at endothelin ETA receptor (setting [3]), the “Free L with D free [%]” value was 56.5 ± 8.5%; the “R-L with D bound1 [%] (hindered diffusion, % of total Alexa532-ET1)” value amounted to 16.0 ± 5.2%; the “R-L with D bound2 [%] (unrestricted lateral mobility, % of total Alexa532-ET1)” value is on record as 27.5 ± 7.0%. The “diffusion time constant τ bound2” value at endothelin ETA receptor (receptor-ligand complex in plasma membrane, fast, 14.3 nM, 45 min, 20°C, n = 6) came out at 1.8 ± 0.2 ms. Moreover, the “diffusion time constant τ bound1” value at endothelin ETA receptor (receptor-ligand complex in plasma membrane, slow, 14.3 nM, 45 min, 20°C, n = 6) came to 63.6 ± 41.6 ms. In addition, the “diffusion coefficient D bound1” value at endothelin ETA receptor (receptor-ligand complexes with hindered lateral mobility, calculated from τ bound1) is given as 0.16 ± 0.06 μm^2/s. Also, the “diffusion coefficient D bound2” value at endothelin ETA receptor (receptor-ligand complexes with unrestricted mobility, calculated from τ bound2) is 5.6 ± 0.6 μm^2/s. Besides, the “total concentration at which binding saturates” value at endothelin ETA receptor (saturation of Alexa532-ET1 binding, 5–55 nM, 45 min) is “approximately 35 nM”. Moreover, in data set [1], the “inositol phosphate production (in words)” value is on record as “Dose-dependent increase of inositol phosphate production” and the “inositol phosphate (IP1) production, dose-dependent increase up to” value lay within 70 to 80 nM. The “diffusion time constant τ free” value (free diffusing Alexa532-ET1 in solution, n = 6) was determined as 95.6 ± 9.0 μs. The “diffusion coefficient D free” value (free diffusing ligand, calculated from τ free using equation (2)) is recorded as 104.2 ± 9.0 μm^2/s.

Consider `Cc1ncc2n1-c1ccc(Cl)cc1C(c1ccccc1F)=NC2` [midazolam], for which the “effect on Alexa532-muscimol binding (in words)” value in the data set on GABAA receptor is given as “increased binding of Alexa532-muscimol”.

With Endothelin-1 [ET-1, reference compound], in data set [1], the “inositol phosphate (IP1) production, dose-dependent increase up to” value lay in the range of 70 to 80 nM. In addition, the “incubation time necessary to reach thermodynamic equilibrium” value in the data set on ETA receptor is reported as “more than 20 h”.
